Assay results: ChEMBL document CHEMBL6134890, “Terminally Symmetric β-Turn Peptides for Multidrug-Resistant Bacterial Infections” (J Med Chem, 2025)
≈ marks a conversion by molar mass, not a printed value. Calls of active or inactive are those of the source. The calls are words filed in the database; no cut-off is given here. Peptide text beside a SMILES is read from it.

What was measured:
Escherichia coli [1] = test: Antimicrobial activity against multi-drug resistant Escherichia coli assessed as reduction in bacterial growth by broth dilution method; format: functional
Escherichia coli [2] = test: Antibacterial activity against multidrug resistant Escherichia coli infected in male Kunming mouse model assessed as recovery of mouse weight measured after 11 days; format: functional, organism-based; conditions: time 11.0 day
Escherichia coli [3] = test: Antimicrobial activity against multi-drug resistant Escherichia coli assessed as reduction in bacterial growth in presence of KCl; format: functional, organism-based
Escherichia coli [4] = test: Antibacterial activity against Escherichia coli […] at sub-inhibitory concentration measured after 15 passages for 18 hrs; format: functional, organism-based
Cell membrane [5] = test: Disruption of cell membrane in multi-drug resistant Escherichia coli assessed as increase in red fluorescence intensity of PI at 2 times MIC measured for 2 hrs by fluorescence confocal microscopic imaging based analysis; format: subcellular
Staphylococcus aureus [6] = test: Antimicrobial activity against multi-drug resistant Staphylococcus aureus assessed as reduction in bacterial growth in presence of MgCl2; format: functional, organism-based
Escherichia coli [7] = test: Antibacterial activity against Escherichia coli ATCC 25922 infected in male Kunming mouse model assessed as reduction in bacterial load measured after 11 days; format: functional, organism-based; conditions: time 11.0 day
HEK-293T = test: Cytotoxicity against HEK293T cells at 2 to 256 uM measured after 24 hrs by CCK-8 method; format: toxicity, cell-based; conditions: human, dose 2-256 µM
Cell membrane [8] = test: Disruption of cell membrane in multi-drug resistant Escherichia coli assessed as appearance of ruptured cell membrane at 2 times MIC measured for 120 mins by transmission electron microscopy analysis; format: subcellular
Escherichia coli [9] = test: Antibacterial activity against multidrug resistant Escherichia coli infected in male Kunming mouse model assessed as reduction in IL-6 expression in presence of levofloxacin by immunochemical analysis; format: functional, organism-based
Staphylococcus aureus [10] = test: Antimicrobial activity against multi-drug resistant Staphylococcus aureus assessed as reduction in bacterial growth in presence of FeCl3; format: functional, organism-based
Escherichia coli [11] = test: Antibacterial activity against multidrug resistant Escherichia coli infected in male Kunming mouse model assessed as wound healing measured after 11 days by caliper method relative to control; format: functional; conditions: time 11 day
Cell membrane [12] = test: Induction of outer membrane permeabilization in multi-drug resistant Escherichia coli assessed as NPN uptake at 1 to 4 times MIC measured within 1 min by fluorescence based analysis; format: subcellular
Escherichia coli [13] = test: Antimicrobial activity against multi-drug resistant Escherichia coli assessed as reduction in bacterial growth at 2 times MIC measured after 1 hrs in presence of chymotrypsin by microplate reader based analysis; format: functional, organism-based
Escherichia coli [14] = test: Antibiofilm activity against multi-drug resistant Escherichia coli measured after 24 hrs by crystal violet staining based analysis; format: functional, organism-based
Escherichia coli [15] = test: Antibacterial activity against multidrug resistant Escherichia coli infected in male Kunming mouse model assessed as scabs thickening measured after 7 days in presence of levofloxacin by caliper method; format: functional, organism-based; conditions: time 7.0 day
Acinetobacter baumannii = test: Antimicrobial activity against multi-drug resistant Acinetobacter baumannii assessed as reduction in bacterial growth by broth dilution method; format: functional
BEAS-2B = test: Cytotoxicity against human BEAS-2B cells at 2 to 256 uM measured after 24 hrs by CCK-8 method; format: toxicity, cell-based; conditions: dose 2-256 µM
Escherichia coli [16] = test: Antibiofilm activity in […] assessed as eradication of formed biofilm at 1 to 4 times MIC measured after 12 hrs by confocal microscopy based analysis; format: functional, organism-based
Escherichia coli [17] = test: Antibacterial activity against multidrug resistant Escherichia coli infected in male Kunming mouse model assessed as reduction in tissue hemorrhage by H and E staining based analysis; format: functional, organism-based
Staphylococcus aureus [18] = test: Antibiofilm activity in methicillin-resistant Staphylococcus aureus assessed as eradication of formed biofilm by measuring reduction in viable bacterial count measured after 12 hrs by confocal microscopy based analysis; format: functional, organism-based
Cell membrane [19] = test: Disruption of cell membrane in multi-drug resistant Escherichia coli assessed as stomatal formation at 2 times MIC measured for 120 mins by transmission electron microscopy analysis; format: subcellular
Cell membrane [20] = test: Disruption of cell membrane in multi-drug resistant Escherichia coli assessed as release of cell content at 2 times MIC measured for 120 mins by transmission electron microscopy analysis; format: subcellular
[21] = Half life of the compound in 25% plasma; format: ADME, cell-free
Escherichia coli [22] = test: Antibacterial activity against multidrug resistant Escherichia coli infected in male Kunming mouse model assessed as reduction in epidermal thickening in presence of levofloxacin by H and E staining based analysis; format: functional, organism-based
Staphylococcus aureus [23] = test: Antimicrobial activity against multi-drug resistant Staphylococcus aureus assessed as reduction in bacterial growth in presence of NaCl; format: functional, organism-based
Staphylococcus aureus [24] = test: Antimicrobial activity against multi-drug resistant Staphylococcus aureus assessed as reduction in bacterial growth at 2 times MIC measured after 1 hrs in presence of trypsin by microplate reader based analysis; format: functional, organism-based
Escherichia coli [25] = test: Antibiofilm activity against multi-drug resistant Escherichia coli at 0.5 times MIC measured after 24 hrs by crystal violet staining based analysis; format: functional, organism-based
Escherichia coli [26] = test: Antibacterial activity against multidrug resistant Escherichia coli infected in male Kunming mouse model assessed as wound healing measured after 11 days in presence of levofloxacin by caliper method relative to control; format: functional; conditions: time 11 day
Escherichia coli [27] = test: Antibacterial activity against multidrug resistant Escherichia coli infected in male Kunming mouse model assessed as reduction in wound size measured after 3 to 5 days in presence of levofloxacin by caliper method; format: functional, organism-based; conditions: time 3-5 day

CC[C@H](C)[C@H](NC(=O)[C@H](CCCCN)NC(=O)[C@@H](NC(=O)[C@H](CCCCN)NC(=O)[C@@H]1CCCN1C(=O)[C@H](Cc1c[nH]c2ccccc12)NC(=O)[C@H](Cc1c[nH]c2ccccc12)NC(=O)[C@H](Cc1c[nH]c2ccccc12)NC(=O)[C@@H]1CCCN1C(=O)[C@H](CCCCN)NC(=O)[C@@H](NC(=O)[C@H](CCCCN)NC(=O)[C@@H](NC(=O)[C@@H](N)CCCCN)[C@@H](C)CC)[C@@H](C)CC)[C@@H](C)CC)C(=O)N[C@@H](CCCCN)C(N)=O (H-KIKIKPWWWPKIKIK-NH2)
MIC (Escherichia coli [1]): 4 µM (≈ 7.97 µg/mL) | Activity (Escherichia coli [2]): Active | Activity (Escherichia coli [3]): Active | Activity (Escherichia coli [4]): Active | Activity (Cell membrane [5]): Active | Activity (Staphylococcus aureus [6]): Active | Activity (Escherichia coli [7]): Active | Activity (HEK-293T): Toxic | Activity (Cell membrane [8]): Active | Activity (Escherichia coli [9]): Active | Activity (Staphylococcus aureus [10]): Active | Activity (Escherichia coli [11]): 100% | Activity (Cell membrane [12]): Active | Activity (Escherichia coli [13]): inactive | Activity (Escherichia coli [14]): Dose-dependent-effect | Activity (Escherichia coli [15]): Active | MIC (Acinetobacter baumannii): 4 µM (≈ 7.97 µg/mL) | Activity (BEAS-2B): Toxic | Activity (Escherichia coli [16]): Active | Activity (Escherichia coli [17]): Active | Activity (Staphylococcus aureus [18]): Dose-dependent-effect | Activity (Cell membrane [19]): Active | Activity (Cell membrane [20]): Active | half-life [21]: 75.5 h | Activity (Escherichia coli [22]): inactive | Activity (Staphylococcus aureus [23]): Active | Activity (Staphylococcus aureus [24]): inactive | Activity (Escherichia coli [25]): Active | Activity (Escherichia coli [26]): 100% | Activity (Escherichia coli [27]): Active
